From patent publication US10639305B2, “Liquid preparation comprising pimobendan” (Boehringer Ingelheim Vetmedica GmbH, priority 2006, dated 2020)
≈ marks a conversion by molar mass, not a printed value.

Experiments:
[1] = Saturated solubility of pimobendan at 10 to 40% (w/v) HPβCD at pH 3, 5 and 7; type: physicochemical; conditions: HPβCD 10 to 40% (w/v), pH 3, 5, 7, 25° C.
Method: Kleptose® HP (Roquette, France) was used as HPβCD of pharmaceutical grade. […] The solutions were buffered with a sodium phosphate solution. The sample solutions were prepared using the following method: • a) Approximately 3 ml of the solution under test was placed in a 7 ml glass vial with a magnetic stirring bar. • b) The pH was adjusted with hydrochloric acid • c) An excess of pimobendan was added.

[2] = physchem; type: physicochemical
Method: Saturated solubility of pimobendan was investigated at 20 to 25% (w/v) of HPβCD in 10 mM phosphate buffer pH 7.0. The study was carried out on three different batches of HPβCD and each solution tested in duplicate (see FIG. 3). The solutions were prepared using the following method: • a) Approximately 3 ml of the solution under test was placed in a 7 ml glass vial with a magnetic stirring bar. • b) An excess of pimobendan was added. The sample was placed in an ultrasonic bath and sonicated for 5 min. to ensure an excess of pimobendan was present and more added if required. • c) The samples were placed in a water bath at 25° C. and stirred for at least 16 hours. • d) The samples were filtered using 0.2 μm PVDF syringe filter. • e) The samples were assayed by HPLC.
An isotonic solution was required for the formulation. […] Sodium chloride was added to increase the osmolality to 303 mOsm/Kg. Saturated solubility of pimobendan 0.75 mg/ml at 24% (w/v) HPβCD were investigated and results were compared with those formulations that were not supplemented with sodium chloride.

[3] = cited from earlier work

Structure (SMILES): COc1ccc(-c2nc3ccc(C4=NNC(=O)CC4C)cc3[nH]2)cc1 (stereo not shown) [pimobendan, 4,5-dihydro-6-[2-(4-methoxyphenyl)-1H-benzimidazol-5-yl]-5-methyl-3(2H)-pyridazinone]
- solubility at a certain HPβCD concentration, compared between pH values [1]: lower at pH 7 than at pH 3, but higher than at pH 5
- solubility ([2]; 25 °C, pH 7, aqueous with cosolvent or surfactant or cyclodextrin, thermodynamic from solid, saturated solubility (amount of soluble pimobendan)): ~1230 µg/mL (≈ 3.68 mM)
- saturated solubility (amount of soluble pimobendan) ([2]; pH 7): about 0.71 mg/ml
- solubility at pH 7 [3]: about 0.1 mg per 100 ml
